Test results published in patent publication US8022180B2, “Method for preventing and treating Alzheimer's disease” (Affiris Forschungs-und Entwicklungs GmbH, priority 2004, dated 2011).

Legend:
[1] = tested on: DAEFRH (SEQ ID NO: 26)-specific mAb; assay: ELISA with peptide libraries (detection by biotinylated DAEFRH-specific mAb); format: binding, mice; conditions: mimotopes from libraries 1-3
Text: (§1) Mice are vaccinated with the 6mer peptide DAEFRH (SEQ ID NO: 26) (natural N-terminal Aβ42 sequence) linked to the protein bovine serum albumin BSA (to make use of the hapten-carrier-effect), emulsified in CFA (first injection) and IFA (booster injections). DAEFRH (SEQ ID NO: 26)-peptide-specific, antibody-producing hybridomas are detected by ELISA (DAEFRH (SEQ ID NO: 26)-peptide-coated ELISA plates).
As mentioned above, peptide libraries 1, 2, and 3 are generated with an Applied Biosystems 431A peptide synthesizer following classical Fmoc-chemistry. The commercially available peptide library 4 is generated according to the manufacturer's description (see above and under www.mimotopes.com). The 90 peptides are C-terminally linked to a pin.
The ELISA with each of the peptide libraries have been carried out following standard protocols:
The peptide library is dissolved in 100% DMSO (final concentration 10 mg/ml).
The peptide solution is further diluted in PBS.
The peptide mixture is coated overnight (4° C.) onto ELISA plates (Nunc Maxisorp, Germany), starting with 500 μg/well, and titrated to 100 ng/well.
The plates are washed 3× times with PBS/Tween 20 (0.1% v/v).
The plates are blocked with PBS/BSA (2 h at room temperature).
The plates are washed 3× times with PBS/Tween.
The plates are incubated with biotinylated DAEFRH (SEQ ID NO: 26)-specific mAb (10 μg/ml in PBS) for 4 h at room temperature.
The plates are incubated with streptavidin-horseradish-peroxidase (30 min at room temperature).
The plates are washed 5× times with PBS/Tween.
The plates are incubated with ABTS+H2O2 (0.1% w/v; 10 to 45 min) and the reaction is stopped with citric acid followed by photometric evaluation (wavelength 405 nm).

[2] = tested on: monoclonal antibody specific for the natural N-terminal Aβ42 sequence DAEFRH; assay: Inhibition assay: mimotope peptides compete with plate-bound DAEFRH-BSA for recognition by the biotinylated monoclonal antibody (ELISA); format: binding, mice; design: key to inhibition (s/m/—): s: strong inhibition; m: moderate inhibition; —: no inhibition; conditions: for inhibition of epitope recognition by the monoclonal antibody (in words): FIGS. 2-9; for inhibition (s/m/—): peptides of the new screening round and 5mers with non natural amino acids; for Inhibitory capacity of mimotopes: summary Tables 1 and 2, in words
Text: 1.: Generation of Monoclonal Antibodies (mAb) to Detect Aβ42-Derived Peptide Species with Free N-Terminus (Free Aspartic Acid at the N-Terminus)
as §1
FIGS. 2 and 3 describe the results of inhibition assays performed with mimotope peptides included in and obtained from the 5 libraries (as described). The mimotope peptides compete with the original epitope for recognition by the monoclonal antibody. Original epitope and mimotope peptides contain an additional C at the C-terminus for coupling to a protein carrier (if desired).
(§2) After blocking with PBS/BSA 1% (200 μl/well, 12 h, 4° C.), the plates are washed 3× times with PBS/Tween. Then, biotinylated monoclonal antibody (1:2000, 50 μl/well) and peptides (50 μl/well) at 50, 5, 0.5, 0.05, 0.005, and 0.0005 μg/ml are added for 20 min. at 37° C. The plates are washed 3× times with PBS/Tween and are incubated with horseradish peroxidase (HRP)-labeled streptavidin (100 μl/well, 30 min, RT). The plates are washed 5× times with PBS/Tween and are incubated with ABTS+H2O2 (0.1% w/v, 10 to 45 min) and the reaction is stopped with citric acid followed by photometric evaluation (wavelength 405 nm).
FIGS. 4 and 5 describe the results of inhibition assays performed with mimotope peptides included in and obtained from the 5 libraries (as described). The mimotope peptides compete with the original epitope for recognition by the monoclonal antibody. Original epitope and mimotope peptides contain an additional C at the C-terminus (position 7) for coupling to a protein carrier (if desired).
as §2, with “different concentrations” for “50, 5, 0.5, 0.05, 0.005, and 0.0005 μg/ml”
FIGS. 6 to 8 describe the results of inhibition assays performed with mimotope peptides included in and obtained from the 2 libraries (as described above). The mimotope peptides compete with the original epitope for recognition by the monoclonal antibody. Original epitope and mimotope peptides contain an additional C at the C-terminus (position 7 or position 8, respectively) for coupling to a protein carrier (if desired).

Substance | detection by the monoclonal antibody [1] | inhibition of epitope recognition by the monoclonal antibody (in words) [2] | inhibition (s/m/—) [2] | other results
DIDYHR | can be detected by the monoclonal antibody |  |  | 
DIDYRR | can be detected by the monoclonal antibody |  |  | 
DLDYHR | can be detected by the monoclonal antibody |  |  | 
DLDYRR | can be detected by the monoclonal antibody |  |  | 
DVDYHR | can be detected by the monoclonal antibody |  |  | 
DVDYRR | can be detected by the monoclonal antibody |  |  | 
EIDYHR | can be detected by the monoclonal antibody |  |  | 
ELDYHR | can be detected by the monoclonal antibody |  |  | 
EVDYHR | can be detected by the monoclonal antibody |  |  | 
GSEFRDY [Peptide 4013] |  | moderately inhibit binding | m | 
KKELRI [Peptide 1234] |  | hardly inhibitory at the concentrations tested |  | Inhibitory capacity of mimotopes [2]: none
SAEFRAT [Peptide 4016] |  | strongly block epitope recognition | s | 
SAEFRTQ [Peptide 4015] |  | strongly block epitope recognition | s | 
SWEFRLY [Peptide 4018] |  | strongly block epitope recognition | s | 
SWEFRNP [Peptide 4017] |  | strongly block epitope recognition | s | 
SWFRNP [Peptide 4019] |  | not inhibitory at the concentrations tested | — | 
VPTSALA [Peptide 4037] |  | not inhibitory at the concentrations tested | — | 
WHWSWR [Peptide 4004] |  | not able to inhibit binding |  | Inhibitory capacity of mimotopes [2]: none
YREFFI [Peptide 3003] |  | not able to inhibit binding |  | Inhibitory capacity of mimotopes [2]: none
YREFRI [Peptide 3004] |  | block epitope recognition |  | concentration at which the peptide is only inhibitory ([2]; only inhibitory at a (relatively) high concentration): 50 µg/mL; Inhibitory capacity of mimotopes [2]: weak
